Where a SMILES comes first, the peptide text is derived from it.
Tested on: B16F10 cells
Test: MTT assay, cell viability
Type: cell-based, mouse
Details: different concentrations, 24, 48 or 72 hours
Experimental: B16F10 is a melanoma cell line isolated from mouse skin (American Type Culture Collection, USA) and was cultured in phenol red-free Dulbecco's Modified Eagle Medium (DMEM) containing 10% (v/v) FBS and penicillin/streptomycin (100 IU/[…]) in 5% CO2 at 37° C.
The cells (2×10^3) in 100 μl complete DMEM were seeded in 96-well plates and treated with the peptide of SEQ ID NO: 1 at different concentrations. The cells treated with ddH2O was used as controls. Ten microliters of 5 mg/ml 3-(4,5-dimethyl-2-thiazolyl)-2,5-diphenyl-2H-tetrazolium bromide solution (MTT; Sigma) was added to each well and incubated at 37° C. for 3 hours. After that, 100 μl 10% SDS in 0.01N HCl was added to dissolve the MTT formazan crystals. The resultant optical density was measured by spectrophotometry at dual wavelengths, 550 and 630 nm.

Q: Which “cell viability (MTT)” value (FIG. 3) does the source give for `C[C@H](NC(=O)[C@H](CO)NC(=O)[C@@H](N)CC(N)=O)C(=O)N[C@H](C(=O)N[C@@H](CCC(=O)O)C(=O)N[C@@H](CCCNC(=N)N)C(=O)N[C@@H](CCC(=O)O)C(=O)O)[C@@H](C)O` [peptide of SEQ ID NO: 1, AsnSerAlaThrGluArgGlu] (H-NSATERE-OH) here?
A: The value was “did not significantly affect the viability”.

Q: What about the “cell viability (MTT)” value (FIG. 3, listed as peptide having the amino acid sequence of SEQ ID NO: 1) of the same compound?
A: The value was “did not significantly affect viability”.
